From US10722520B2, “Heterocyclic compounds and their use in preventing or treating bacterial infections” (MUTABILIS, priority 2016, dated 2020)
pIC50: −log10 of the molar value. Structures can show the parent of a compound that is named as a salt. Where two headings read alike, the source gives them in different places.

Tests used:
CTX-M-15 = CTX-M-15 (Escherichia coli, UniProt Q9EXV5)
KPC-2 = KPC-2 (Klebsiella pneumoniae, UniProt Q9F663)
OXA-11 = OXA-11 (Pseudomonas aeruginosa, UniProt Q06778)
TEM-1 = TEM-1 (Escherichia coli, UniProt P62593)
SHV-1 = SHV-1 (Klebsiella pneumoniae, UniProt P0AD64)
CMY-37 = CMY-37 (Citrobacter freundii, UniProt P05193); conditions: read-out: IC50 β-lactamase CMY-37
AmpC (PAE) = AmpC (PAE) (Pseudomonas aeruginosa, UniProt P24735); experiment: biochemical
AmpC (P99) = AmpC (P99) (Enterobacter cloacae, UniProt P05364); experiment: biochemical
OXA-48 = OXA-48 (Klebsiella pneumoniae, UniProt Q6XEC0)
OXA-1 = OXA-1 (Escherichia coli, UniProt P13661)
OXA-15 = OXA-15 (Pseudomonas aeruginosa, UniProt Q51574); experiment: biochemical
P. aeruginosa CIP107051 = experiment: MIC of compound alone, broth microdilution; type: cell-based; conditions: Pseudomonas aeruginosa; strain CIP107051; compound alone; read-out: MIC compounds of the invention alone
How it was run: (§1)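 Step one, log-phase suspension set to 5×10^5 cfu/mL final in CA-MHB. Step two, incubation at 35° C under ambient air for 16-20 h. Step three, visual reading of the lowest growth-free concentration as MIC.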

K. pneumoniae 6299 = experiment: MIC of compound alone, broth microdilution; type: cell-based; conditions: Klebsiella pneumoniae; strain 6299; compound alone; read-out: MIC compounds of the invention alone
How it was run: as §1

K. pneumoniae BAA-1898 = experiment: MIC of compound alone, broth microdilution; type: cell-based; conditions: Klebsiella pneumoniae, BAA1898; strain BAA-1898; compound alone; read-out: MIC compounds of the invention alone
How it was run: as §1

E. cloacae P99 = experiment: MIC of compound alone, broth microdilution; type: cell-based; conditions: Enterobacter cloacae; strain P99; compound alone; read-out: MIC compounds of the invention alone
How it was run: as §1

E. coli 190317 = experiment: MIC of compound alone, broth microdilution; type: cell-based; conditions: Escherichia coli; strain 190317; compound alone; read-out: MIC compounds of the invention alone
How it was run: as §1

[1] = class (C), nitrocefin 200 μM, 30-min pre-incubation, enzyme 0.2 nM

Row | Structure (SMILES) | pIC50 (CTX-M-15) | pIC50 (KPC-2) | pIC50 (OXA-11) | pIC50 (TEM-1) | pIC50 (SHV-1) | pIC50 (CMY-37) | pIC50 (AmpC (PAE)) | pIC50 (AmpC (P99)) | pIC50 (OXA-48) | pIC50 (OXA-1) | pIC50 (OXA-15) | MIC (P. aeruginosa CIP107051) | MIC (K. pneumoniae 6299) | MIC (K. pneumoniae BAA-1898) | MIC (E. cloacae P99) | MIC (E. coli 190317) | pIC50 (CMY-37; [1])
1 | O=C1N2CC(n3cc(C(F)(F)F)cn3)=CC(C2)N1OS(=O)(=O)[O-].[Na+] (centres unmarked) [Example 22, sodium [7-oxo-3-[4-(trifluoromethyl)pyrazol-1-yl]-1,6-diazabicyclo[3.2.1]oct-3-en-6-yl]sulfate] | 9.26 | 8.52 | 6.66 | 9.68 | 8.96 | 7.92 | 7.11 | 7.77 | 8.34 | 6.74 | 8.04 | > 32 µg/mL | > 32 µg/mL | > 32 µg/mL | > 32 µg/mL | > 32 µg/mL | –
2 | N#Cc1cnn(C2=CC3CN(C2)C(=O)N3OS(=O)(=O)[O-])c1.[Na+] (centres unmarked) [Example 8, sodium [3-(4-cyanopyrazol-1-yl)-7-oxo-1,6-diazabicyclo[3.2.1]oct-3-en-6-yl]sulfate] | 9.11 | 8.48 | 7.70 | 9.46 | 8.60 | 7.80 | 6.85 | 8.12 | 8.46 | 7.00 | 8.28 | > 32 µg/mL | > 32 µg/mL | > 32 µg/mL | > 32 µg/mL | 8 µg/mL | –
3 | O=C(N[C@@H]1CCNC1)c1ccn(C2=CC3CN(C2)C(=O)N3OS(=O)(=O)O)n1 (stereo partly drawn) [Example 83, [7-oxo-3-[3-[[(3R)-pyrrolidin-3-yl]carbamoyl]pyrazol-1-yl]-1,6-diazabicyclo[3.2.1]oct-3-en-6-yl]hydrogen sulfate] | 9.19 | 8.10 | 7.62 | 9.57 | 8.42 | – | 6.64 | 7.62 | 8.49 | 7.43 | 7.49 | > 32 µg/mL | 32 µg/mL | 8 µg/mL | 8 µg/mL | 2 µg/mL | 7.20
4 | O=C(N[C@H]1CCNC1)c1ccn(C2=CC3CN(C2)C(=O)N3OS(=O)(=O)O)n1 (stereo partly drawn) [Example 82, [7-oxo-3-[3-[[(3S)-pyrrolidin-3-yl]carbamoyl]pyrazol-1-yl]-1,6-diazabicyclo[3.2.1]oct-3-en-6-yl]hydrogen sulfate] | 9.05 | 8.00 | 7.66 | 9.24 | 8.31 | – | 6.57 | 7.49 | 8.49 | 6.96 | 7.33 | > 32 µg/mL | 32 µg/mL | 32 µg/mL | 4 µg/mL | 2 µg/mL | 7.21
5 | O=C(Nc1nncs1)c1ccn(C2=CC3CN(C2)C(=O)N3OS(=O)(=O)[O-])n1.[Na+] (centres unmarked) [Example 84, sodium [7-oxo-3-[3-(1,3,4-thiadiazol-2-ylcarbamoyl)pyrazol-1-yl]-1,6-diazabicyclo[3.2.1]oct-3-en-6-yl]sulfate] | 9.00 | 8.07 | 7.66 | 9.11 | 8.57 | 7.70 | 6.80 | 7.60 | 8.14 | 6.82 | 7.01 | > 32 µg/mL | > 32 µg/mL | > 32 µg/mL | > 32 µg/mL | > 32 µg/mL | –
6 | O=C(CO)Nc1ccn(C2=CC3CN(C2)C(=O)N3OS(=O)(=O)[O-])n1.[Na+] (centres unmarked) [Example 50, sodium [3-[3-[(2-hydroxyacetyl)amino]pyrazol-1-yl]-7-oxo-1,6-diazabicyclo[3.2.1]oct-3-en-6-yl]sulfate] | 9.23 | 7.92 | 7.96 | 8.92 | 8.25 | 8.23 | 7.17 | 7.92 | 8.24 | 7.10 | 7.22 | > 32 µg/mL | 16 µg/mL | 32 µg/mL | 16 µg/mL | 8 µg/mL | –
7 | O=C(NCCO)c1ccn(C2=CC3CN(C2)C(=O)N3OS(=O)(=O)[O-])n1.[Na+] (centres unmarked) [Example 11, sodium [3-[3-(2-hydroxyethylcarbamoyl)pyrazol-1-yl]-7-oxo-1,6-diazabicyclo[3.2.1]oct-3-en-6-yl]sulfate] | 8.85 | 7.92 | 7.68 | 8.92 | 8.12 | 7.28 | 6.37 | 7.57 | 8.11 | 7.02 | 7.11 | > 32 µg/mL | > 32 µg/mL | > 32 µg/mL | 32 µg/mL | 16 µg/mL | –
8 | NCCONC(=O)c1ccn(C2=CC3CN(C2)C(=O)N3OS(=O)(=O)O)n1 (centres unmarked) [Example 46, [3-[3-(2-aminoethoxycarbamoyl)pyrazol-1-yl]-7-oxo-1,6-diazabicyclo[3.2.1]oct-3-en-6-yl]hydrogen sulfate] | 9.15 | 7.96 | 7.31 | 9.05 | 8.40 | – | 6.80 | 7.60 | 8.41 | 6.85 | 6.77 | > 32 µg/mL | > 32 µg/mL | 16 µg/mL | 16 µg/mL | 2 µg/mL | 7.80
9 | NC(=O)c1cnn(C2=CC3CN(C2)C(=O)N3OS(=O)(=O)[O-])c1.[Na+] (centres unmarked) [Example 7, sodium [3-(4-carbamoylpyrazol-1-yl)-7-oxo-1,6-diazabicyclo[3.2.1]oct-3-en-6-yl]sulfate] | 8.57 | 7.92 | 7.03 | 9.14 | 8.33 | 7.66 | 6.40 | 7.68 | 8.11 | 6.60 | 7.26 | > 32 µg/mL | > 32 µg/mL | > 32 µg/mL | > 32 µg/mL | 16 µg/mL | –
10 | NC(=O)CONC(=O)c1ccn(C2=CC3CN(C2)C(=O)N3OS(=O)(=O)[O-])n1.[Na+] (centres unmarked) [Example 52, sodium [3-[3-[(2-amino-2-oxo-ethoxy)carbamoyl]pyrazol-1-yl]-7-oxo-1,6-diazabicyclo[3.2.1]oct-3-en-6-yl]sulfate] | 9.17 | 7.96 | 6.89 | 8.72 | 8.04 | 8.06 | 6.96 | 7.80 | 8.12 | 6.51 | 6.59 | > 32 µg/mL | 16 µg/mL | 32 µg/mL | 16 µg/mL | 8 µg/mL | –
11 | O=C(Nc1ncns1)c1ccn(C2=CC3CN(C2)C(=O)N3OS(=O)(=O)O)n1 (centres unmarked) [Example 79, [7-oxo-3-[3-(1,2,4-thiadiazol-5-ylcarbamoyl)pyrazol-1-yl]-1,6-diazabicyclo[3.2.1]oct-3-en-6-yl]hydrogen sulfate] | 9.34 | 8.36 | 7.72 | 9.44 | 9.01 | – | 7.02 | 7.85 | 8.33 | 7.19 | 7.34 | > 32 µg/mL | > 32 µg/mL | > 32 µg/mL | > 32 µg/mL | > 32 µg/mL | 8.07
